Legend:
[1] = Apparent permeability of the compound; type: ADME; settings: not told
Protein O-GlcNAcase = biological target: T1, Protein O-GlcNAcase (Homo sapiens, UniProt O60502); assay: Inhibition of human O-GlcNAcase
T1 sequence (O60502 whole entry): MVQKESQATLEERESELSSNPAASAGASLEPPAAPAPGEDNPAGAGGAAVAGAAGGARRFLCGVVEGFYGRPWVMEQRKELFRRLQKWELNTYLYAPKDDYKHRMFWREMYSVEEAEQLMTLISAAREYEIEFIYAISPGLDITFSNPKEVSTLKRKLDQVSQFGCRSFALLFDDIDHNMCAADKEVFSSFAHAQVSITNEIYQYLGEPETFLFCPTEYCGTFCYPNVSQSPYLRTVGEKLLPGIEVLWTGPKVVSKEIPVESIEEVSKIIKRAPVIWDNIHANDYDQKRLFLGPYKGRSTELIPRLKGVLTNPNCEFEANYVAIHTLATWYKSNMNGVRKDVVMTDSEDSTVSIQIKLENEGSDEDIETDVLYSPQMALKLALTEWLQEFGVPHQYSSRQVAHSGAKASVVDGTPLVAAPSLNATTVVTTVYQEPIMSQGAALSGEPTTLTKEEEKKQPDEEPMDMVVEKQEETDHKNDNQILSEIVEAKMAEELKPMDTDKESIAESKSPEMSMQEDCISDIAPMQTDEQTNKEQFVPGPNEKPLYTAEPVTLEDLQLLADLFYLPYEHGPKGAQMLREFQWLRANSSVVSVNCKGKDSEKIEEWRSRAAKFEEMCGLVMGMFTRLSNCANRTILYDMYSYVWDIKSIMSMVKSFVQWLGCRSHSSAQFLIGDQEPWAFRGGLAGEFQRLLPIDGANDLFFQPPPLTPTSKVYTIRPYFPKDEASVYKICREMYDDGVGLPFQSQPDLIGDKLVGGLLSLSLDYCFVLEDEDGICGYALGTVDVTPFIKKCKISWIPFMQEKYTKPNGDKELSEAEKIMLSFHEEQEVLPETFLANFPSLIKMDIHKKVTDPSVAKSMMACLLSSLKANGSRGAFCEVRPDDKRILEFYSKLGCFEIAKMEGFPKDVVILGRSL

CCNC1=N[C@@H]2[C@@H](O)[C@H](O)[C@@H](C(F)F)O[C@@H]2S1
Papp [1]: 6.4 ×10⁻⁶ cm/s
IC50 (Protein O-GlcNAcase): 7.9 nM

— ChEMBL document CHEMBL4321833, “Sugar Kick Prevents Memory Impairment” (J Med Chem, 2019)
